# From patent US8642788B2, “Activators of executioner procaspases 3, 6 and 7” (The Regents of the University of California, priority 2008, dated 2014)
# pEC50: −log10 of the molar value. Read-outs that look alike come from different tables or passages of the source.
# Assays:
# Assay type in all cases: biochemical
# procaspase-3 = biological target: T1, procaspase-3 (Homo sapiens, UniProt P42574); experiment: Executioner procaspase-3 activation assay (Ac-DEVD-AFC fluorogenic substrate)
# T1 construct: His6 (C); made in house; host or cells: E. coli BL21(DE3)RP, pET-23b
# T1 sequence (P42574 1-277): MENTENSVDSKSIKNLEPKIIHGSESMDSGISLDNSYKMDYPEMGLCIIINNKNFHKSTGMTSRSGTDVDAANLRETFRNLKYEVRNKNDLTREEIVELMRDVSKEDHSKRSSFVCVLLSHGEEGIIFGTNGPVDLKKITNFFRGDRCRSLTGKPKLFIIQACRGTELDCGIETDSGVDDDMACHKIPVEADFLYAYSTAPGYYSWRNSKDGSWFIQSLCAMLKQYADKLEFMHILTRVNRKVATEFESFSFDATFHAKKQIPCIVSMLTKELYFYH
# How it was run: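 Procaspase-3 at 100 nM was incubated with activating compounds (100 nM to 100 uM) in 50 mM HEPES pH 7.4, 50 mM KCl, 1 mM DTT and 0.01% Triton-X100, the detergent limiting aggregation artefacts. Protein, substrate and inhibitor were kept as frozen aliquots and thawed just before use.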
# procaspase-6 = biological target: T2, procaspase-6 (Homo sapiens, UniProt P55212); experiment: Executioner procaspase-6 activation assay (Ac-VEID-AFC fluorogenic substrate); details: incubation with compound for 5 h at 37° C.; 100 nM procaspase
# T2 sequence (P55212 1-293): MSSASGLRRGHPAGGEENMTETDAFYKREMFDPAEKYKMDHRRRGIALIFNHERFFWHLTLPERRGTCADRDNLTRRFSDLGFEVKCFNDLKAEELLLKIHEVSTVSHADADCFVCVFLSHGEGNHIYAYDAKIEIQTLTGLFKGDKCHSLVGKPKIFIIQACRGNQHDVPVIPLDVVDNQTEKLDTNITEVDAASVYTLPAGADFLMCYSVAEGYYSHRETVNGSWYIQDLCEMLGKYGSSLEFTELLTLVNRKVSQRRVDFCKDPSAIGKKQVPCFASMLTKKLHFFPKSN
# How it was run: (§1)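 Procaspase at 100 nM incubated with compound (100 nM–100 μM) in 50 mM HEPES pH 7.4, KCl, DTT, 0.01% Triton X-100, 3% DMSO, 37 °C for 5 h; then 25 μM Ac-DEVD-AFC (procaspase-7) or Ac-VEID-AFC (procaspase-6), kinetic fluorescence 30 min (ex 365/em 495); EC50 reported.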
# procaspase-7 = biological target: T3, procaspase-7 (Homo sapiens, UniProt P55210); experiment: Executioner procaspase-7 activation assay (Ac-DEVD-AFC fluorogenic substrate); details: incubation with compound for 5 h at 37° C.; 100 nM procaspase
# T3 construct: His6 (C); made in house; host or cells: E. coli BL21(DE3)RP, pET-21b
# T3 sequence (P55210 1-303): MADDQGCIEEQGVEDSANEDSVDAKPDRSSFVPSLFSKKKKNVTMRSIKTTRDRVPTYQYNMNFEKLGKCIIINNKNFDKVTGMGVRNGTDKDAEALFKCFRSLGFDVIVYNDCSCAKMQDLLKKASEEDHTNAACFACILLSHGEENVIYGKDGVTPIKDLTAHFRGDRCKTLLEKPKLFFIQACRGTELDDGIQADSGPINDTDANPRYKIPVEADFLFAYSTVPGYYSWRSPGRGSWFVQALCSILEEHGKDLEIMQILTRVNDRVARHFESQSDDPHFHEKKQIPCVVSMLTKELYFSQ
# How it was run: as §1
# [1] = incubation with compound for 5 h at 37° C., 100 nM procaspase, read-out: Procaspase Activation 3
pEC50 (procaspase-3; [1]),pEC50 (procaspase-6),pEC50 (procaspase-7),SMILES,pEC50 (procaspase-3)
< 4.00,< 4.00,< 4.00,"COc1cccc2cc(C(=O)Nc3cccc(-c4ccc5[nH]c(=O)[nH]c5c4)c3)c(=O)oc12 [compound 158, 8-Methoxy-2-oxo-2H-chromene-3-carboxylic acid [3-(2-oxo-2,3-dihydro-1H-benzoimidazol-5-yl)-phenyl]-amide]",
< 4.00,< 4.00,< 4.00,"O=C(Nc1cccc(-c2ccc3nonc3c2)c1)c1cc2cccc(O)c2oc1=O [compound 159, 8-Hydroxy-2-oxo-2H-chromene-3-carboxylic acid (3-benzo[1,2,5]oxadiazol-5-yl-phenyl)-amide]",
< 4.00,< 4.00,< 4.00,"COc1cccc2cc(C(=O)Nc3cccc(-c4ccc5nonc5c4)c3)c(=O)oc12 [compound 160, 8-Methoxy-2-oxo-2H-chromene-3-carboxylic acid (3-benzo[1,2,5]oxadiazol-5-yl-phenyl)-amide]",
5.00 to 6.30,< 4.00,< 4.00,"O=C(Nc1cccc(-c2ccc3occc(=O)c3c2)c1)c1cc2cccc(O)c2oc1=O [compound 161, 8-Hydroxy-2-oxo-2H-chromene-3-carboxylic acid [3-(4-oxo-4H-chromen-6-yl)-phenyl]-amide]",
< 4.00,5.00 to 6.30,< 4.00,"COc1cccc2cc(C(=O)Nc3cccc(-c4ccc5occc(=O)c5c4)c3)c(=O)oc12 [compound 162, 8-Methoxy-2-oxo-2H-chromene-3-carboxylic acid [3-(4-oxo-4H-chromen-6-yl)-phenyl]-amide]",
< 4.00,< 4.00,< 4.00,"Cn1ccc2cc(-c3cccc(NC(=O)c4cc5cccc(O)c5oc4=O)c3)ccc21 [compound 163, 8-Hydroxy-2-oxo-2H-chromene-3-carboxylic acid [3-(1-methyl-1H-indol-5-yl)-phenyl]-amide]",
< 4.00,< 4.00,< 4.00,"COc1cccc2cc(C(=O)Nc3cccc(-c4ccc5c(ccn5C)c4)c3)c(=O)oc12 [compound 164, 8-Methoxy-2-oxo-2H-chromene-3-carboxylic acid [3-(1-methyl-1H-indol-5-yl)-phenyl]-amide]",
< 4.00,< 4.00,< 4.00,"O=C(Nc1cccc(-c2cnn(Cc3ccccc3)c2)c1)c1cc2cccc(O)c2oc1=O [compound 169, 8-Hydroxy-2-oxo-2H-chromene-3-carboxylic acid [3-(1-benzyl-1H-pyrazol-4-yl)-phenyl]-amide]",
< 4.00,< 4.00,< 4.00,"COc1cccc2cc(C(=O)Nc3cccc(-c4cnn(Cc5ccccc5)c4)c3)c(=O)oc12 [compound 170, 8-Methoxy-2-oxo-2H-chromene-3-carboxylic acid [3-(1-benzyl-1H-pyrazol-4-yl)-phenyl]-amide]",
< 4.00,< 4.00,< 4.00,"Cn1cc(-c2cccc(NC(=O)c3cc4cccc(O)c4oc3=O)c2)cn1 [compound 171, 8-Hydroxy-2-oxo-2H-chromene-3-carboxylic acid [3-(1-methyl-1H-pyrazol-4-yl)-phenyl]-amide]",
< 4.00,< 4.00,< 4.00,"COc1cccc2cc(C(=O)Nc3cccc(-c4cnn(C)c4)c3)c(=O)oc12 [compound 172, 8-Methoxy-2-oxo-2H-chromene-3-carboxylic acid [3-(1-methyl-1H-pyrazol-4-yl)-phenyl]-amide]",
< 4.00,< 4.00,< 4.00,"CC(C)(C)OC(=O)n1cccc1-c1cccc(NC(=O)c2cc3cccc(O)c3oc2=O)c1 [compound 173, 2-{3-[(8-Hydroxy-2-oxo-2H-chromene-3-carbonyl)-amino]-phenyl}-pyrrole-1-carboxylic acid tert-butyl ester]",
< 4.00,< 4.00,< 4.00,"COc1cccc2cc(C(=O)Nc3cccc(-c4cccn4C(=O)OC(C)(C)C)c3)c(=O)oc12 [compound 174, 2-{3-[(8-Methoxy-2-oxo-2H-chromene-3-carbonyl)-amino]-phenyl}-pyrrole-1-carboxylic acid tert-butyl ester]",
< 4.00,< 4.00,< 4.00,"CC(C)(C)OC(=O)n1c(-c2cccc(NC(=O)c3cc4cccc(O)c4oc3=O)c2)cc2ccccc21 [compound 175, 2-{3-[(8-Hydroxy-2-oxo-2H-chromene-3-carbonyl)-amino]-phenyl}-indole-1-carboxylic acid tert-butyl ester]",
< 4.00,< 4.00,< 4.00,"COc1cccc2cc(C(=O)Nc3cccc(-c4cc5ccccc5n4C(=O)OC(C)(C)C)c3)c(=O)oc12 [compound 176, 2-{3-[(8-Methoxy-2-oxo-2H-chromene-3-carbonyl)-amino]-phenyl}-indole-1-carboxylic acid tert-butyl ester]",
< 4.00,< 4.00,< 4.00,"O=C(Nc1cccc(-c2cc(F)cc(F)c2)c1)c1cc2cccc(O)c2oc1=O [compound 177, 8-Hydroxy-2-oxo-2H-chromene-3-carboxylic acid (3′,5′-difluoro-biphenyl-3-yl)-amide]",
< 4.00,4.30 to 5.00,< 4.00,"COc1cccc2cc(C(=O)Nc3cccc(-c4cc(F)cc(F)c4)c3)c(=O)oc12 [compound 178, 8-Methoxy-2-oxo-2H-chromene-3-carboxylic acid (3′,5′-difluoro-biphenyl-3-yl)-amide]",

SMILES,pEC50 (procaspase-3; [1]),pEC50 (procaspase-6),pEC50 (procaspase-7),pEC50 (procaspase-3)
"O=C(Nc1cccc(-c2ccc3cc[nH]c3c2)c1)c1cc2cccc(O)c2oc1=O [compound 165, 8-Hydroxy-2-oxo-2H-chromene-3-carboxylic acid [3-(1H-indol-6-yl)-phenyl]-amide]",,< 4.00,< 4.00,< 4.00
"COc1cccc2cc(C(=O)Nc3cccc(-c4ccc5cc[nH]c5c4)c3)c(=O)oc12 [compound 166, 8-Methoxy-2-oxo-2H-chromene-3-carboxylic acid [3-(1H-indol-6-yl)-phenyl]-amide]",,< 4.00,< 4.00,< 4.00
"O=C(Nc1cccc(-c2cccc3[nH]ccc23)c1)c1cc2cccc(O)c2oc1=O [compound 167, 8-Hydroxy-2-oxo-2H-chromene-3-carboxylic acid [3-(1H-indol-4-yl)-phenyl]-amide]",,< 4.00,< 4.00,< 4.00
"COc1cccc2cc(C(=O)Nc3cccc(-c4cccc5[nH]ccc45)c3)c(=O)oc12 [compound 168, 8-Methoxy-2-oxo-2H-chromene-3-carboxylic acid [3-(1H-indol-4-yl)-phenyl]-amide]",,< 4.00,< 4.00,< 4.00
